This is an account of results in publication PMC6888128, “Biosynthesis of Phenylamide Phytoalexins in Pathogen-Infected Barley” (International Journal of Molecular Sciences, 2019).

Structures are written as SMILES. Read-outs that look alike come from different tables or passages of the source.

One test has as its system T1, HvTHT8.
T1 construct: His-GST-tagged (pCold GST), E. coli BL21, TALON-purified; differs from HvTHT7 only at residue 166 (His/Arg)
Briefly: LC-MS/MS (MRM) of amide product. In kind it is biochemical, Hordeum vulgare. To be noted: 100 mM Tris-HCl pH 8.0, 35 °C, read-out: HvTHT8 / K m. The text has this:
LC-MS/MS (MRM) of amide product on HvTHT8

Another test concerns T2, HvTHT7.
T2 construct: His-GST-tagged (pCold GST), E. coli BL21, TALON-purified; HvTHT7 plasmid made by site-directed mutagenesis of HvTHT8; differs from HvTHT8 only at residue 166 (His/Arg)
Briefly: LC-MS/MS (MRM) of amide product. In kind it is biochemical, Hordeum vulgare. To be noted: 100 mM Tris-HCl pH 8.0, 35 °C, read-out: HvTHT7 / K m. The text has this:
LC-MS/MS (MRM) of amide product on HvTHT7

Where [1] appears, read: acyl acceptor, 200 µM cinnamoyl-CoA.

Regarding `NCC(=O)c1c[nH]c2ccccc12` [8-Oxotryptamine], the Km in the test with HvTHT8 (setting [1]) stood at 54.9 µM; in the test with HvTHT7 (setting [1]), 53.1 µM.
Take `CC(C)(COP(=O)(O)OP(=O)(O)OC[C@H]1O[C@@H](n2cnc3c(N)ncnc32)[C@H](O)[C@@H]1OP(=O)(O)O)[C@@H](O)C(=O)NCCC(=O)NCCSC(=O)/C=C/c1ccccc1` [Cinnamoyl-CoA]: the Km amounted to 62.1 µM with HvTHT8 (acyl donor, 1 mM tryptamine) and 64.2 µM in the test with HvTHT7 (acyl donor, 1 mM tryptamine).
The matching figures for `CC(C)(COP(=O)(O)OP(=O)(O)OC[C@H]1O[C@@H](n2cnc3c(N)ncnc32)[C@H](O)[C@@H]1OP(=O)(O)O)[C@@H](O)C(=O)NCCC(=O)NCCSC(=O)/C=C/c1ccc(O)cc1` [Coumaroyl-CoA]: 35.5 µM and 39.2 µM.
For `COc1cc(/C=C/C(=O)SCCNC(=O)CCNC(=O)[C@H](O)C(C)(C)COP(=O)(O)OP(=O)(O)OC[C@H]2O[C@@H](n3cnc4c(N)ncnc43)[C@H](O)[C@@H]2OP(=O)(O)O)ccc1O` [Feruloyl-CoA] the same measures were 36.7 µM and 32.6 µM.
As for `NCc1c[nH]c2ccccc12` [IMA, (1H-indol-3-yl)methylamine], the Km in the test on HvTHT8 (setting [1]) amounted to 33.9 µM; in the test on HvTHT7 (setting [1]) it was 54.2 µM.
With `NCCc1c[nH]c2ccc(O)cc12` [Serotonin], the Km came out at 347 µM in the test with HvTHT8 (setting [1]) and 385 µM with HvTHT7 (setting [1]).
For `NCCc1c[nH]c2ccccc12` [Tryptamine], the Km in the test on HvTHT8 (setting [1]) was 60.6 µM; with HvTHT7 (setting [1]), 59.2 µM.
